In PubChem BioAssay AID328 (DTP/NCI, 2004) one finds T/C data, which are given here for 19 compounds.

Values joined by “and” are separate entries in the source; they are usually repeats but may differ in a detail not shown here. Equal entries are not always repeated. Toxic doses and inconclusive results are not listed.

The assay relates to BDF1 mice, P388 leukemia ip, median survival T/C. Briefly: NCI In Vivo Anticancer Drug Screen. Data for tumor model P388 Leukemia (intraperitoneal) in B6D2F1 (BDF1) mice. The conditions noted are these: endpoint: median survival time, higher = longer survival. Put shortly:
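Steps: implant the tumour, treat one group with compound and another with vehicle, record survival, then divide treated by control.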

Setting [1] is: dose: 50.0 mg/kg/injection, schedule: Q01DX009 (ip), vehicle: saline with Tween-80.
[2] abbreviates: dose: 100.0 mg/kg/injection, schedule: Q01DX009 (ip), vehicle: saline with Tween-80.
[3] abbreviates: dose: 200.0 mg/kg/injection, schedule: Q01DX009 (ip), vehicle: saline with Tween-80.
Setting [4] is: dose: 50.0 mg/kg/injection, schedule: Q01DX009 (ip), vehicle: Klucel (hydroxypropylcellulose) (HPC).
[5] abbreviates: dose: 200.0 mg/kg/injection, schedule: Q01DX009 (ip), vehicle: Klucel (hydroxypropylcellulose) (HPC).
Setting [6] is: dose: 100.0 mg/kg/injection, schedule: Q04DX003 (ip), vehicle: saline with Tween-80.
[7] abbreviates: dose: 200.0 mg/kg/injection, schedule: Q04DX003 (ip), vehicle: saline with Tween-80.
The mark [8] stands for this setting: dose: 100.0 mg/kg/injection, schedule: Q01DX001 (ip), vehicle: saline sonified.
The mark [9] stands for this setting: dose: 100.0 mg/kg/injection, schedule: Q01DX001 (ip), vehicle: saline.
The mark [10] stands for this setting: dose: 200.0 mg/kg/injection, schedule: Q01DX001 (ip), vehicle: saline.

Take `CNC(=O)OCCN(CCOC(=O)NC)C(=O)N1c2ccccc2Sc2ccccc21`: the T/C runs as follows: (dose: 25.0 mg/kg/injection, schedule: Q01DX009 (ip), vehicle: saline with Tween-80) 95 % of control and 107 % of control; under setting [1], 98 % of control; under setting [2], 98 % of control and 116 % of control; under setting [3], 115 % of control.

As to `S=c1nc[nH]c2c1ncn2C1CCCO1` (stereo not given), the T/C under setting [1] is 95 % of control and the T/C under setting [2] was 118 % of control.

In the case of `CC(C)CCCCCCCCCCCCC(=O)NCC(=O)NC1C(O)C(O)C(Nc2ncnc3nc[nH]c23)OC1C(O)CO` (stereo not given), the T/C (dose: 0.09 mg/kg/injection, schedule: Q01DX010 (ip), vehicle: carboxymethylcellulose (CMC)) is 160 % of control; the T/C (dose: 0.13 mg/kg/injection, schedule: Q01DX010 (ip), vehicle: steriod suspending solution) is 90 % of control; the T/C (dose: 0.18 mg/kg/injection, schedule: Q01DX010 (ip), vehicle: carboxymethylcellulose (CMC)) is 180 % of control; the T/C (dose: 0.37 mg/kg/injection, schedule: Q01DX010 (ip), vehicle: carboxymethylcellulose (CMC)) was 175 % of control; the T/C (dose: 0.37 mg/kg/injection, schedule: Q01DX010 (ip), vehicle: steriod suspending solution) is 165 % of control.

For `CCCC[P+](c1ccccc1)(c1ccccc1)c1ccccc1`, the T/C by setting is: (dose: 0.6 mg/kg/injection, schedule: Q01DX009 (ip), vehicle: saline) 122 % of control; (dose: 1.2 mg/kg/injection, schedule: Q01DX009 (ip), vehicle: saline) 105 % of control; (dose: 2.5 mg/kg/injection, schedule: Q01DX009 (ip), vehicle: saline) 150 % of control; (dose: 5.0 mg/kg/injection, schedule: Q01DX009 (ip), vehicle: saline) 115 % of control; (dose: 40.0 mg/kg/injection, schedule: Q01DX009 (ip), vehicle: saline) 95 % of control.

As for `Cc1cc2no[n+]([O-])c2cc1C`, the T/C was 109 % of control under setting [4]; 109 % of control (dose: 100.0 mg/kg/injection, schedule: Q01DX009 (ip), vehicle: Klucel (hydroxypropylcellulose) (HPC)); 109 % of control under setting [5].

Consider `CCOC(C)C(/C=N/NC(N)=S)=NNC(N)=S` (stereo not given), for which the T/C by setting is: (dose: 25.0 mg/kg/injection, schedule: Q01DX009 (ip), vehicle: Klucel (hydroxypropylcellulose) (HPC)) 110 % of control; under setting [4], 115 % of control; under setting [1], 107 % of control; under setting [2], 96 % of control; (dose: 100.0 mg/kg/injection, schedule: Q04DX003 (ip), vehicle: Klucel (hydroxypropylcellulose) (HPC)) 109 % of control; under setting [6], 86 % of control. The T/C is 110 % of control (dose: 150.0 mg/kg/injection, schedule: Q01DX009 (ip), vehicle: Klucel (hydroxypropylcellulose) (HPC)); 122 % of control under setting [5]; 100 % of control (dose: 200.0 mg/kg/injection, schedule: Q04DX003 (ip), vehicle: Klucel (hydroxypropylcellulose) (HPC)); 91 % of control under setting [7]; 104 % of control (dose: 400.0 mg/kg/injection, schedule: Q04DX003 (ip), vehicle: Klucel (hydroxypropylcellulose) (HPC)).

Turning to `CCOP(=O)(NCCCOC)OCC`, the T/C (dose: 3.5 mg/kg/injection, schedule: Q01DX009 (ip), vehicle: saline) is 105 % of control; the T/C (dose: 7.0 mg/kg/injection, schedule: Q01DX009 (ip), vehicle: saline) was 120 % of control; the T/C (dose: 9.0 mg/kg/injection, schedule: Q04DX003 (ip), vehicle: saline) is 122 % of control; the T/C (dose: 14.0 mg/kg/injection, schedule: Q01DX009 (ip), vehicle: saline) is 115 % of control; the T/C (dose: 14.0 mg/kg/injection, schedule: Q04DX003 (ip), vehicle: saline) is 104 % of control; the T/C (dose: 30.0 mg/kg/injection, schedule: Q01DX009 (ip), vehicle: saline) was 88 % of control. Moreover, under “dose: 45.0 mg/kg/injection, schedule: Q01DX009 (ip), vehicle: saline”, the T/C is 88 % of control.

Consider `O=C(c1ccccc1)C1OC1c1ccccc1` (stereo not given), for which the T/C reads like this: under setting [2], 93 % of control; under setting [3], 99 % of control; (dose: 400.0 mg/kg/injection, schedule: Q01DX009 (ip), vehicle: saline with Tween-80) 100 % of control; (dose: 600.0 mg/kg/injection, schedule: Q01DX009 (ip), vehicle: saline with Tween-80) 100 % of control.

Take `Nc1n[nH]c([N+](=O)[O-])n1`: the T/C was 108 % of control under setting [8]; 100 % of control (dose: 200.0 mg/kg/injection, schedule: Q01DX001 (ip), vehicle: saline sonified); 100 % of control (dose: 400.0 mg/kg/injection, schedule: Q01DX001 (ip), vehicle: saline sonified).

In the case of `C[N+]1(C)C2CC(=O)CC1C1CC12` (stereo not given) (tested in a mixture with another compound), the T/C runs as follows: (dose: 25.0 mg/kg/injection, schedule: Q01DX009 (ip), vehicle: saline) 99 % of control; (dose: 50.0 mg/kg/injection, schedule: Q01DX009 (ip), vehicle: saline) 106 % of control; (dose: 100.0 mg/kg/injection, schedule: Q01DX009 (ip), vehicle: saline) 106 % of control; (dose: 200.0 mg/kg/injection, schedule: Q01DX009 (ip), vehicle: saline) 106 % of control.

For the compound `C#CCN(C)CCO`, the T/C is 105 % of control under setting [9]; 90 % of control (dose: 100.0 mg/kg/injection, schedule: Q04DX003 (ip), vehicle: alcohol); 95 % of control under setting [10]; 100 % of control (dose: 200.0 mg/kg/injection, schedule: Q04DX003 (ip), vehicle: alcohol); 100 % of control (dose: 400.0 mg/kg/injection, schedule: Q01DX001 (ip), vehicle: saline); 100 % of control (dose: 400.0 mg/kg/injection, schedule: Q04DX003 (ip), vehicle: alcohol).

Regarding `Nn1c(-c2ccc([N+](=O)[O-])cc2)nc2ccccc2c1=O`, the T/C is 90 % of control under setting [1], 91 % of control under setting [2] and 91 % of control under setting [3].

On to `CC1(C)C(=O)C(C)(C)C1=NO`, for which the T/C was 95 % of control (dose: 100.0 mg/kg/injection, schedule: Q04DX003 (ip), vehicle: saline); 100 % of control (dose: 200.0 mg/kg/injection, schedule: Q04DX003 (ip), vehicle: saline); 95 % of control (dose: 400.0 mg/kg/injection, schedule: Q04DX003 (ip), vehicle: saline).

In the case of `CCCCOc1cc(C(=O)NCCN(CC)CC)c2ccccc2n1`, the T/C (dose: 6.25 mg/kg/injection, schedule: Q04DX003 (ip), vehicle: saline with Tween-80) was 100 % of control; the T/C (dose: 12.5 mg/kg/injection, schedule: Q04DX003 (ip), vehicle: saline with Tween-80) is 109 % of control; the T/C (dose: 25.0 mg/kg/injection, schedule: Q04DX003 (ip), vehicle: saline with Tween-80) was 109 % of control.

With `CCCCCCCC(=O)Nc1c(C)cccc1C`, the T/C by setting is: under setting [6], 100 % of control; under setting [7], 100 % of control; (dose: 400.0 mg/kg/injection, schedule: Q04DX003 (ip), vehicle: saline with Tween-80) 95 % of control.

Regarding `CC(C)CCC[C@@H](C)[C@H]1CC[C@H]2[C@@H]3CC[C@H]4C[C@H]5N[C@H]5C[C@]4(C)[C@H]3CC[C@]12C`, the T/C runs as follows: (dose: 50.0 mg/kg/injection, schedule: Q01DX001 (ip), vehicle: saline sonified) 100 % of control; under setting [8], 95 % of control.

`CCCCCCOc1ccc(OCCCC[N+]2(CC)CCCCC2)cc1`: the T/C reads like this: (dose: 6.25 mg/kg/injection, schedule: Q01DX009 (ip), vehicle: saline) 103 % of control; (dose: 12.5 mg/kg/injection, schedule: Q01DX009 (ip), vehicle: saline) 110 % of control.

`O=C(O)c1sccc1-c1cccc2ccccc12`: the T/C by setting is: (dose: 50.0 mg/kg/injection, schedule: Q01DX001 (ip), vehicle: saline) 104 % of control; under setting [9], 100 % of control; under setting [10], 95 % of control.

`C[N+](C)(CC(=O)Nc1ccc(Cl)c(C(F)(F)F)c1)CC(=O)c1ccc(Cl)c(Cl)c1`: the T/C reads like this: (dose: 200.0 mg/kg/injection, schedule: Q04DX003 (ip), vehicle: saline sonified) 100 % of control; (dose: 400.0 mg/kg/injection, schedule: Q04DX003 (ip), vehicle: saline sonified) 104 % of control.
